{"source": "patent US9527842B2", "about": "“Inhibitors of human immunodeficiency virus replication” (priority 2013, dated 2016)", "key": {"[1]": {"details": "rcm bond, Hoveyda-Grubbs II, DCE"}, "[2]": {"details": "rcm bond, Hoveyda-Grubbs II, then H2, Pd/C, then NaOH, DCE, 85.0 °C, 3 steps"}}, "note": "Read-outs that look alike come from different tables or passages of the source.", "data": [{"smiles": "COC(=O)[C@@H](OC(C)(C)C)c1c(C)cn2nc3cc2c1N1CCC(C)(CC1)OCC=CCOc1ccccc1CC(O)CNC3=O", "note": "(stereo partly shown)", "values": [{"measurement": "ring closure, isolated yield", "setting": "[1]; from C=CCOc1ccccc1CC(O)CNC(=O)c1cc2c(N3CCC(C)(OCC=C)CC3)c([C@H](OC(C)(C)C)C(=O)OC)c(C)cn2n1, 21-membered ring, 1.81 mM, 70.0 °C, 3.0 h", "value": 58, "unit": "%"}]}, {"smiles": "COC(=O)[C@@H](OC(C)(C)C)c1c(C)cn2nc3cc2c1N1CCC(C)(CC1)OCC=CC[C@H](C)Oc1ccc(C#N)cc1-c1cccc-3c1", "values": [{"measurement": "ring closure, isolated yield", "setting": "[1]; from C=CCOC1(C)CCN(c2c([C@H](OC(C)(C)C)C(=O)OC)c(C)cn3nc(-c4cccc(-c5cc(C#N)ccc5O[C@@H](C)CC=C)c4)cc23)CC1, 20-membered ring, 1.51 mM, 85.0 °C, 2.0 h", "value": 82, "unit": "%"}]}, {"smiles": "COC(=O)[C@@H](OC(C)(C)C)c1c(C)cn2nc3cc2c1N1CCC(C)(CC1)OCC=CC[C@H](C)Oc1cccc(F)c1-c1cccc-3c1", "values": [{"measurement": "ring closure, yield after HPLC", "setting": "[2]; from C=CCOC1(C)CCN(c2c([C@H](OC(C)(C)C)C(=O)OC)c(C)cn3nc(-c4cccc(-c5c(F)cccc5O[C@@H](C)CC=C)c4)cc23)CC1, 20-membered ring, 2.0 mM, 2.0 h", "value": 19.6, "unit": "%"}]}, {"smiles": "COC(=O)[C@@H](OC(C)(C)C)c1c(C)cn2nc3cc2c1N1CCC(C)(CC1)OCC=CC[C@H](C)Oc1ccc(F)cc1-c1cccc-3c1", "values": [{"measurement": "ring closure, yield after HPLC", "setting": "[2]; from C=CCOC1(C)CCN(c2c([C@H](OC(C)(C)C)C(=O)OC)c(C)cn3nc(-c4cccc(-c5cc(F)ccc5O[C@@H](C)CC=C)c4)cc23)CC1, 20-membered ring, 2.02 mM, 2.0 h", "value": 23.2, "unit": "%"}]}, {"smiles": "COC(=O)[C@@H](OC(C)(C)C)c1c(C)cn2nc3cc2c1N1CCC(C)(CC1)OCC=CCC[C@H](C)Oc1ccc(C)cc1-c1cccc-3c1", "values": [{"measurement": "ring closure, yield after HPLC", "setting": "[2]; from C=CCC[C@H](C)Oc1ccc(C)cc1-c1cccc(-c2cc3c(N4CCC(C)(OCC=C)CC4)c([C@H](OC(C)(C)C)C(=O)OC)c(C)cn3n2)c1, 21-membered ring, 1.86 mM, 3.0 h", "value": 40.6, "unit": "%"}]}, {"smiles": "COC(=O)[C@@H](OC(C)(C)C)c1c(C)cn2nc3cc2c1N1CCC(C)(CC1)OCC=CC(C)COc1ccc(C)cc1-c1cccc-3c1", "note": "(stereo partly shown)", "values": [{"measurement": "ring closure, isolated yield", "setting": "[1]; from C=CCOC1(C)CCN(c2c([C@H](OC(C)(C)C)C(=O)OC)c(C)cn3nc(-c4cccc(-c5cc(C)ccc5OCC(C)C=C)c4)cc23)CC1, 20-membered ring, 2.13 mM, 85.0 °C, 2.0 h", "value": 82, "unit": "%"}]}, {"smiles": "COC(=O)[C@@H](OC(C)(C)C)c1c(C)cn2nc3cc2c1N1CCC(C)(CC1)OCC=CC[C@H](C)Oc1cc(F)ccc1-c1cccc-3c1", "values": [{"measurement": "ring closure, yield after HPLC", "setting": "[2]; from C=CCOC1(C)CCN(c2c([C@H](OC(C)(C)C)C(=O)OC)c(C)cn3nc(-c4cccc(-c5ccc(F)cc5O[C@@H](C)CC=C)c4)cc23)CC1, 20-membered ring, 1.57 mM, 2.0 h", "value": 49.8, "unit": "%"}]}]}
